Source: patent publication US10125095B2, “Abscisic acid derivative” (NATIONAL UNIVERSITY CORPORATION SHIZUOKA UNIVERSITY, priority 2014, dated 2018)

What was measured:
[1] = tested on: seeds of thale cress (Arabidopsis thaliana, Col-0); assay: Thale cress seed germination test; type: in vivo
Protocol: Seeds of thale cress (Arabidopsis thaliana, Col-0) were immersed in 500 μL of an aqueous solution of 70% ethanol for 30 minutes, subsequently in 500 μL of a 100% ethanol solution for 1 minute, washed five times in 1 mL of distilled water, then immersed in distilled water and, in a dark place, vernalized at 4° C. for 3 days. A solution of the sample in methanol was put in a 1.5 mL-microtube, and methanol was removed therefrom under reduced pressure. An aqueous solution of 0.5% agar (containing ½ MS medium inorganic salts) at 70° C. was added thereto and stirred, and subsequently the obtained mixture was placed in a 96-well plate to prepare the medium containing the sample. All samples were prepared so as to have a concentration of 3 μM of the compound in Examples 1 to 9 and Comparative Example 1. Further, when ABA is applied, the ABA concentration was adjusted to 0.3 μM. 20 to 30 vernalized seeds of thale cress were planted in each well and cultured at 22° C. under continuous light to monitor the number of seeds germinated over time. The germination rate was calculated by the following formula (1). Note that those cultured in medium prepared using methanol in the same manner were used as controls. […] Germination rate (%)=Number of seeds germinated/Number of seeds planted×100 (1)
The same test was carried out as in Test Example 1 with the concentrations of the compound of Example 1 for treatment varying from 0.3 μM to 30 μM.
Similarly, the same test was carried out with the concentrations of the compound of Example 2 for treatment varying from 0.3 μM to 30 μM.
The same test was carried out as in Test Example 2 with the concentrations of the compounds for treatment varying from 0.3 μM to 3 μM to compare the recovery effects on seed germination rate of the compound of Example 1 and the compound of Comparative Example 1.

PYL2 = biological target: T1, PYL2 (Arabidopsis thaliana, UniProt O80992); assay: Protein dephosphorylation enzyme activity test, PYL2; type: biochemical, thale cress; conditions: control = 100%
T1 construct: 6xHis (N); made in house; host or cells: Escherichia coli BL21-codonplus(DE3)-RIPL (PYL); BL21(DE3)pLysS (HAB1)
T1 sequence (O80992 1-190): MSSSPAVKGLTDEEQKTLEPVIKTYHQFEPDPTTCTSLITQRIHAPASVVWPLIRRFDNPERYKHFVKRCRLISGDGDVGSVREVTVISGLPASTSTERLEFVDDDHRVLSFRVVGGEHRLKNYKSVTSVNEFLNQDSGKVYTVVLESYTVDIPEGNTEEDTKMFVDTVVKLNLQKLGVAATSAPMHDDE
Protocol: (§1) A plasmid (pGex-2T-GST-HAB1 or pET28-6×His-PYL) encoded with PYR/PYL/RCAR proteins (PYL, abscisic acid receptor) or protein dephosphorylation enzyme HAB1 of thale cress was transformed to Escherichia coli (HAB1:BL21(DE3)pLysS, PYL:BL21-codonplus(DE3)-RIPL). Isopropyl-β-thiogalactopyranoside was added to the culture broth, which had been subjected to pre-culture (30° C., 180 rpm, 15 hours) and main culture (30° C., 180 rpm, 4 hours), and the protein-expressed (16° C., 150 rpm, 18 hours) crude enzyme solution was purified using FPLC thereby preparing the recombined PYL (PYR1, PYL1-6, PYL8-10) and HAB1. β-Mercaptoethanol, a manganese chloride aqueous solution, HAB1, PYL, a solution of the sample in dimethylsulfoxide and ultrapure water were sequentially added to a 96-well plate, allowed to stand at 22° C. for 30 minutes. Subsequently p-nitrophenylphosphate, which is the artificial substrate of HAB1, was added thereto to start the reaction, and the plate was placed in a microplate reader (TECAN, Infinite™ N200 NanoQuant). The absorbance at 405 nm due to p-nitrophenol, which is the hydrolysate of p-nitrophenylphosphate, was measured 3 minutes later from the reaction initiation, and HAB1 activity was calculated by the following formula (2). Note that the fraction to which only dimethylsulfoxide was added was considered to be the control and the activity thereof was defined as 100%. […] HAB1 specific activity (%)=Absorbance when sample was added/Absorbance of control×100 (2)

PYL3 = biological target: T2, PYL3 (Arabidopsis thaliana, UniProt Q9SSM7); assay: Protein dephosphorylation enzyme activity test, PYL3; type: biochemical, thale cress; conditions: control = 100%
T2 construct: 6xHis (N); made in house; host or cells: Escherichia coli BL21-codonplus(DE3)-RIPL (PYL); BL21(DE3)pLysS (HAB1)
T2 sequence (Q9SSM7 1-209): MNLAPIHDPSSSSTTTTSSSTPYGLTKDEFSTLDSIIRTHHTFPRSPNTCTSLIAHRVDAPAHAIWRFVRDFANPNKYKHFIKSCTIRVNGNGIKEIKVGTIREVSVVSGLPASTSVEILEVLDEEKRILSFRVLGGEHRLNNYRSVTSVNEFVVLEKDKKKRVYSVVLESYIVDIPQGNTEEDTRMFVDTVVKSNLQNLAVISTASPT
Protocol: as §1

PYL5 = biological target: T3, PYL5 (Arabidopsis thaliana, UniProt Q9FLB1); assay: Protein dephosphorylation enzyme activity test, PYL5; type: biochemical, thale cress; conditions: control = 100%
T3 construct: 6xHis (N); made in house; host or cells: Escherichia coli BL21-codonplus(DE3)-RIPL (PYL); BL21(DE3)pLysS (HAB1)
T3 sequence (Q9FLB1 1-203): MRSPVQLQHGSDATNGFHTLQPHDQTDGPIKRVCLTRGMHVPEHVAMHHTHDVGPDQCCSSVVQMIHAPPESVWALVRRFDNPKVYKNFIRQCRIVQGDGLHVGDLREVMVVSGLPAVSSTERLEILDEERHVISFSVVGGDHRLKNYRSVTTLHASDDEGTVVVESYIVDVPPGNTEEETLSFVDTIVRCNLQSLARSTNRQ
Protocol: as §1

PYL6 = biological target: T4, PYL6 (Arabidopsis thaliana, UniProt Q8S8E3); assay: Protein dephosphorylation enzyme activity test, PYL6; type: biochemical, thale cress; conditions: control = 100%
T4 construct: 6xHis (N); made in house; host or cells: Escherichia coli BL21-codonplus(DE3)-RIPL (PYL); BL21(DE3)pLysS (HAB1)
T4 sequence (Q8S8E3 1-215): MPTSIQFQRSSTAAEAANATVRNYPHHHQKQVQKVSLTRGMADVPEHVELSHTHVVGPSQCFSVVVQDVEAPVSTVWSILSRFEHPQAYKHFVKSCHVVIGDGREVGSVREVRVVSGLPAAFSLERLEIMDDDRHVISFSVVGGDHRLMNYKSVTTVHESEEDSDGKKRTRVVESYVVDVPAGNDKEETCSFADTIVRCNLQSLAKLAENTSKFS
Protocol: as §1

PYL8 = biological target: T5, PYL8 (Arabidopsis thaliana, UniProt Q9FGM1); assay: Protein dephosphorylation enzyme activity test, PYL8; type: biochemical, thale cress; conditions: control = 100%
T5 construct: 6xHis (N); made in house; host or cells: Escherichia coli BL21-codonplus(DE3)-RIPL (PYL); BL21(DE3)pLysS (HAB1)
T5 sequence (Q9FGM1 1-188): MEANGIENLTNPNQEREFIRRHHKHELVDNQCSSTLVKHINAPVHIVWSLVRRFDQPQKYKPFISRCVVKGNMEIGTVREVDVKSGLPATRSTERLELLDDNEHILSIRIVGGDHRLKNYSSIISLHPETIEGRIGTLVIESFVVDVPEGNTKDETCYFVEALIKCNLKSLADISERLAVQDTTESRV
Protocol: as §1

[2] = 3 μM compound co-applied with 0.3 μM ABA

Row | SMILES | Germination rate (%) 24 Hours later [1, 2] | Germination rate (%) 36 Hours later [1, 2] | Germination rate (%) 48 Hours later [1, 2] | Germination rate (%) 60 Hours later [1, 2] | Germination rate (%) 24 Hours later ([1]; compound alone, 3 μM) | Germination rate (%) 36 Hours later ([1]; compound alone, 3 μM) | Germination rate (%) 48 Hours later ([1]; compound alone, 3 μM) | Germination rate (%) 60 Hours later ([1]; compound alone, 3 μM) | HAB1 Specific activity (%) PYL2 (PYL2; ABA + compound) | HAB1 Specific activity (%) PYL2 (PYL2; sample alone) | HAB1 Specific activity (%) PYL3 (PYL3; ABA + compound) | HAB1 Specific activity (%) PYL3 (PYL3; sample alone) | HAB1 Specific activity (%) PYL5 (PYL5; ABA + compound) | HAB1 Specific activity (%) PYL5 (PYL5; sample alone) | HAB1 Specific activity (%) PYL6 (PYL6; ABA + compound) | HAB1 Specific activity (%) PYL6 (PYL6; sample alone) | HAB1 Specific activity (%) PYL8 (PYL8; ABA + compound) | HAB1 Specific activity (%) PYL8 (PYL8; sample alone) | also measured
1 | CC1=C[C@@H](OCC#Cc2ccc(C)cc2)CC(C)(C)[C@@]1(O)/C=C/C(C)=C\C(=O)O [Example 7] | 0% | 76% | 100% | 100% | 0% | 86% | 100% | 100% | 113% | 133% | 61% | 121% | 74.6% | 85.5% | 61.0% | 93.5% | 98.7% | 98.5% | 
2 | CC1=CC(=O)CC(C)(C)[C@@]1(O)/C=C/C(C)=C\C(=O)O [ABA, abscisic acid] |  |  |  |  |  |  |  |  |  | 13.1% |  | 16.8% |  | 15.5% |  | 19.5% |  | 13.9% | Germination rate (%) 24 Hours later ([1]; ABA alone, 0.3 μM): 0%; Germination rate (%) 36 Hours later ([1]; ABA alone, 0.3 μM): 0%; Germination rate (%) 48 Hours later ([1]; ABA alone, 0.3 μM): 16.2%; Germination rate (%) 60 Hours later ([1]; ABA alone, 0.3 μM): 32.6%
3 | CC1=C[C@@H](OCC#Cc2ccccc2)CC(C)(C)[C@@]1(O)/C=C/C(C)=C\C(=O)O [Example 1, (2Z,4E)-5-((1S,4S)-1-hydroxy-2,6,6-trimethyl-4-((3-phenylprop-2-yn-1-yl)oxy)cyclohex-2-en-1-yl)-3-methylpenta-2,4-dienoic acid] | 0% | 79% | 100% | 100% | 0% | 86% | 100% | 100% | 84.8% | 96.6% | 49.2% | 88.6% | 87% | 85.8% | 87.6% | 122% | 76.9% | 105% | Recovery of seed germination rate decreased by ABA ([1]; compound 0.3 μM to 30 μM co-applied with ABA): seed germination rates decreased by ABA are recovered; Recovery effect on seed germination rate, comparison ([1]; compounds 0.3 μM to 3 μM, co-applied with ABA): excels in the recovery effect on seed germination rate more than the compound of Comparative Example 1
